# Results as given in ChEMBL document CHEMBL3885881, “DrugMatrix”.
# Species: Rattus norvegicus
# Test: DrugMatrix - Regimen: Daily Repeat
# Type: toxicity, organism-based, Sprague-Dawley
# Design: regimen Daily Repeat, gender Male, age 6-8 weeks
# Conditions: in vivo, po, route oral GAVAGE, vehicle .5 % CMC; for ABSOLUTE BASOPHIL / ABSOLUTE EOSINOPHIL / ABSOLUTE LYMPHOCYTE / ABSOLUTE MONOCYTE / ABSOLUTE SEGMENTED NEUTROPHIL / BASOPHIL / EOSINOPHIL / ERYTHROCYTE COUNT / HEMATOCRIT / HEMOGLOBIN / LEUKOCYTE COUNT / LYMPHOCYTE / MEAN CORPUSCULAR HEMOGLOBIN / MEAN CORPUSCULAR VOLUME / MONOCYTE / NEUTROPHIL / NUCLEATED RED BLOOD CELLS / PLATELET COUNT: tissue Blood; for ALANINE AMINOTRANSFERASE / ALBUMIN / ALKALINE PHOSPHATASE / ASPARTATE AMINOTRANSFERASE / BLOOD UREA NITROGEN / CARBON DIOXIDE / CHLORIDE / CHOLESTEROL / CREATINE PHOSPHOKINASE / CREATININE / GLUCOSE / LACTATE DEHYDROGENASE / LIPASE / PHOSPHORUS / POTASSIUM / SODIUM / TOTAL BILIRUBIN / TOTAL PROTEIN / URIC ACID: tissue Plasma
# [1] = 68 mg/kg, 72 h, dose level Low, time 3 day
# [2] = 68 mg/kg, 120 h, dose level Low, time 5 day
# [3] = 750 mg/kg, 72 h, dose level High, time 3 day
# [4] = 750 mg/kg, 120 h, dose level High, time 5 day
compound,measurement,setting,value
C(=C\c1ccccc1)/CN1CCN(C(c2ccccc2)c2ccccc2)CC1 [CINNARIZINE],ABSOLUTE BASOPHIL,[1],0 CELLS/uL
same,ABSOLUTE EOSINOPHIL,[1],0 CELLS/uL
same,ABSOLUTE LYMPHOCYTE,[1],14250 CELLS/uL
same,ABSOLUTE MONOCYTE,[1],268.67 CELLS/uL
same,ABSOLUTE SEGMENTED NEUTROPHIL,[1],1614.67 CELLS/uL
same,BASOPHIL,[1],0%
same,EOSINOPHIL,[1],0%
same,ERYTHROCYTE COUNT,[1],5.37 x10E6/uL
same,HEMATOCRIT,[1],33.93%
same,HEMOGLOBIN,[1],12.87 G/DL
same,LEUKOCYTE COUNT,[1],16.13 x10E3/uL
same,LYMPHOCYTE,[1],88.33%
same,MEAN CORPUSCULAR HEMOGLOBIN,[1],24 pg
same,MEAN CORPUSCULAR VOLUME,[1],63.2 fL
same,MONOCYTE,[1],1.67%
same,NEUTROPHIL,[1],10%
same,NUCLEATED RED BLOOD CELLS,[1],0 /100WBC
same,PLATELET COUNT,[1],1225 x10E3/uL
same,ALANINE AMINOTRANSFERASE,[1],45.33 u/L
same,ALBUMIN,[1],4.37 G/DL
same,ALKALINE PHOSPHATASE,[1],323 u/L
same,ASPARTATE AMINOTRANSFERASE,[1],68.67 u/L
same,BLOOD UREA NITROGEN,[1],15.33 mg/dL
same,CARBON DIOXIDE,[1],24.33 mmol/L
same,CHLORIDE,[1],102 MEQ/L
same,CHOLESTEROL,[1],67.33 mg/dL
same,CREATINE PHOSPHOKINASE,[1],220.67 u/L
same,CREATININE,[1],0.17 mg/dL
same,GLUCOSE,[1],136.33 mg/dL
same,LACTATE DEHYDROGENASE,[1],186 u/L
same,LIPASE,[1],9 u/L
same,PHOSPHORUS,[1],11.57 mg/dL
same,POTASSIUM,[1],6.72 MEQ/L
same,SODIUM,[1],145.13 MEQ/L
same,TOTAL BILIRUBIN,[1],0.2 mg/dL
same,TOTAL PROTEIN,[1],5.33 G/DL
same,URIC ACID,[1],1.7 mg/dL
same,ABSOLUTE BASOPHIL,[2],0 CELLS/uL
same,ABSOLUTE EOSINOPHIL,[2],62.67 CELLS/uL
same,ABSOLUTE LYMPHOCYTE,[2],17347 CELLS/uL
same,ABSOLUTE MONOCYTE,[2],686 CELLS/uL
same,ABSOLUTE SEGMENTED NEUTROPHIL,[2],2204.33 CELLS/uL
same,BASOPHIL,[2],0%
same,EOSINOPHIL,[2],0.33%
same,ERYTHROCYTE COUNT,[2],5.91 x10E6/uL
same,HEMATOCRIT,[2],36.67%
same,HEMOGLOBIN,[2],13.63 G/DL
same,LEUKOCYTE COUNT,[2],20.3 x10E3/uL
same,LYMPHOCYTE,[2],85.33%
same,MEAN CORPUSCULAR HEMOGLOBIN,[2],23.13 pg
same,MEAN CORPUSCULAR VOLUME,[2],62.13 fL
same,MONOCYTE,[2],3.33%
same,NEUTROPHIL,[2],11%
same,NUCLEATED RED BLOOD CELLS,[2],0 /100WBC
same,PLATELET COUNT,[2],1382.33 x10E3/uL
same,ALANINE AMINOTRANSFERASE,[2],44 u/L
same,ALBUMIN,[2],4.3 G/DL
same,ALKALINE PHOSPHATASE,[2],307 u/L
same,ASPARTATE AMINOTRANSFERASE,[2],78.33 u/L
same,BLOOD UREA NITROGEN,[2],21.67 mg/dL
same,CARBON DIOXIDE,[2],26 mmol/L
same,CHLORIDE,[2],107.33 MEQ/L
same,CHOLESTEROL,[2],53.33 mg/dL
same,CREATINE PHOSPHOKINASE,[2],288.33 u/L
same,CREATININE,[2],0.19 mg/dL
same,GLUCOSE,[2],133 mg/dL
same,LACTATE DEHYDROGENASE,[2],263 u/L
same,LIPASE,[2],8.67 u/L
same,PHOSPHORUS,[2],11.3 mg/dL
same,POTASSIUM,[2],6.89 MEQ/L
same,SODIUM,[2],145.37 MEQ/L
same,TOTAL BILIRUBIN,[2],0.17 mg/dL
same,TOTAL PROTEIN,[2],6.13 G/DL
same,URIC ACID,[2],1.5 mg/dL
same,ABSOLUTE BASOPHIL,[3],0 CELLS/uL
same,ABSOLUTE EOSINOPHIL,[3],121.67 CELLS/uL
same,ABSOLUTE LYMPHOCYTE,[3],10962.67 CELLS/uL
same,ABSOLUTE MONOCYTE,[3],242 CELLS/uL
same,ABSOLUTE SEGMENTED NEUTROPHIL,[3],773.67 CELLS/uL
same,BASOPHIL,[3],0%
same,EOSINOPHIL,[3],1%
same,ERYTHROCYTE COUNT,[3],6.6 x10E6/uL
same,HEMATOCRIT,[3],41.67%
same,HEMOGLOBIN,[3],15.33 G/DL
same,LEUKOCYTE COUNT,[3],12.1 x10E3/uL
same,LYMPHOCYTE,[3],90.67%
same,MEAN CORPUSCULAR HEMOGLOBIN,[3],23.23 pg
same,MEAN CORPUSCULAR VOLUME,[3],63.07 fL
same,MONOCYTE,[3],2%
same,NEUTROPHIL,[3],6.33%
same,NUCLEATED RED BLOOD CELLS,[3],0 /100WBC
same,PLATELET COUNT,[3],1456.67 x10E3/uL
same,ALANINE AMINOTRANSFERASE,[3],52.33 u/L
same,ALBUMIN,[3],4.3 G/DL
same,ALKALINE PHOSPHATASE,[3],423.33 u/L
same,ASPARTATE AMINOTRANSFERASE,[3],79.33 u/L
same,BLOOD UREA NITROGEN,[3],19 mg/dL
same,CARBON DIOXIDE,[3],26.67 mmol/L
same,CHLORIDE,[3],99.33 MEQ/L
same,CHOLESTEROL,[3],58.67 mg/dL
same,CREATINE PHOSPHOKINASE,[3],294.67 u/L
same,CREATININE,[3],0.19 mg/dL
same,GLUCOSE,[3],138 mg/dL
same,LACTATE DEHYDROGENASE,[3],240.67 u/L
same,LIPASE,[3],10 u/L
same,PHOSPHORUS,[3],11.73 mg/dL
same,POTASSIUM,[3],6.79 MEQ/L
same,SODIUM,[3],141.93 MEQ/L
same,TOTAL BILIRUBIN,[3],0.17 mg/dL
same,TOTAL PROTEIN,[3],6.1 G/DL
same,URIC ACID,[3],1.8 mg/dL
same,ABSOLUTE BASOPHIL,[4],0 CELLS/uL
same,ABSOLUTE EOSINOPHIL,[4],0 CELLS/uL
same,ABSOLUTE LYMPHOCYTE,[4],10935.67 CELLS/uL
same,ABSOLUTE MONOCYTE,[4],287 CELLS/uL
same,ABSOLUTE SEGMENTED NEUTROPHIL,[4],1277.33 CELLS/uL
same,BASOPHIL,[4],0%
same,EOSINOPHIL,[4],0%
same,ERYTHROCYTE COUNT,[4],6.35 x10E6/uL
same,HEMATOCRIT,[4],38.33%
same,HEMOGLOBIN,[4],14.23 G/DL
same,LEUKOCYTE COUNT,[4],12.5 x10E3/uL
same,LYMPHOCYTE,[4],87.67%
same,MEAN CORPUSCULAR HEMOGLOBIN,[4],22.4 pg
same,MEAN CORPUSCULAR VOLUME,[4],60.4 fL
same,MONOCYTE,[4],2.33%
same,NEUTROPHIL,[4],10%
same,NUCLEATED RED BLOOD CELLS,[4],0 /100WBC
same,PLATELET COUNT,[4],1123.67 x10E3/uL
same,ALANINE AMINOTRANSFERASE,[4],56 u/L
same,ALBUMIN,[4],4.1 G/DL
same,ALKALINE PHOSPHATASE,[4],361.67 u/L
same,ASPARTATE AMINOTRANSFERASE,[4],78.67 u/L
same,BLOOD UREA NITROGEN,[4],17.67 mg/dL
same,CARBON DIOXIDE,[4],27 mmol/L
same,CHLORIDE,[4],103.67 MEQ/L
same,CHOLESTEROL,[4],72.33 mg/dL
same,CREATINE PHOSPHOKINASE,[4],366.67 u/L
same,CREATININE,[4],0.16 mg/dL
same,GLUCOSE,[4],155.33 mg/dL
same,LACTATE DEHYDROGENASE,[4],194.67 u/L
same,LIPASE,[4],10 u/L
same,PHOSPHORUS,[4],12.9 mg/dL
same,POTASSIUM,[4],7.06 MEQ/L
same,SODIUM,[4],147.1 MEQ/L
same,TOTAL BILIRUBIN,[4],0.17 mg/dL
same,TOTAL PROTEIN,[4],5.9 G/DL
same,URIC ACID,[4],2 mg/dL
